According to the NIST ThermoML archive (doi:10.1016/j.tca.2013.05.007):
Numbers after ± are expanded uncertainties.

Assay: molar heat capacity at constant pressure
Details: 330.15 K; 101.33 kPa; Liquid; Large sample (1 g) DSC

Row | SMILES | molar heat capacity at constant pressure [J/K/mol]
1 | CCC[n+]1cccc(C)c1.O=S(=O)([N-]S(=O)(=O)C(F)(F)F)C(F)(F)F | 546 ± 55

Same assay, conditions: 331.15 K; 101.33 kPa; Liquid; Large sample (1 g) DSC

Row | SMILES | molar heat capacity at constant pressure [J/K/mol]
2 | CCCC[n+]1cccc(C)c1.O=S(=O)([O-])C(F)(F)F [1-butyl-3-methylpyridinium trifluoromethanesulfonate] | 472 ± 48
3 | CCCCn1cc[n+](C)c1.O=S(=O)([O-])C(F)(F)F [1-butyl-3-methylimidazolium trifluoromethanesulfonate] | 464 ± 47
4 | CCCC[n+]1cccc(C)c1.O=S(=O)([N-]S(=O)(=O)C(F)(F)F)C(F)(F)F | 580 ± 59
5 | CC[n+]1cccc(C)c1.O=S(=O)([N-]S(=O)(=O)C(F)(F)F)C(F)(F)F | 520 ± 53
6 | CCCCn1cc[n+](C)c1.N#CN=C=[N-] [1-butyl-3-methylimidazolium dicyanamide] | 391 ± 40
7 | CCC[n+]1cccc(C)c1.O=S(=O)([N-]S(=O)(=O)C(F)(F)F)C(F)(F)F | 547 ± 55

Same assay, conditions: 332.15 K; 101.33 kPa; Liquid; Large sample (1 g) DSC

Row | SMILES | molar heat capacity at constant pressure [J/K/mol]
8 | CCCC[n+]1cccc(C)c1.O=S(=O)([O-])C(F)(F)F [1-butyl-3-methylpyridinium trifluoromethanesulfonate] | 473 ± 48
9 | CCCCn1cc[n+](C)c1.O=S(=O)([O-])C(F)(F)F [1-butyl-3-methylimidazolium trifluoromethanesulfonate] | 465 ± 47
10 | CCCC[n+]1cccc(C)c1.O=S(=O)([N-]S(=O)(=O)C(F)(F)F)C(F)(F)F | 581 ± 59
11 | CC[n+]1cccc(C)c1.O=S(=O)([N-]S(=O)(=O)C(F)(F)F)C(F)(F)F | 521 ± 53
12 | CCCCn1cc[n+](C)c1.N#CN=C=[N-] [1-butyl-3-methylimidazolium dicyanamide] | 391 ± 39
13 | CCC[n+]1cccc(C)c1.O=S(=O)([N-]S(=O)(=O)C(F)(F)F)C(F)(F)F | 548 ± 55

Same assay, conditions: 333.15 K; 101.33 kPa; Liquid; Large sample (1 g) DSC

Row | SMILES | molar heat capacity at constant pressure [J/K/mol]
14 | CCCC[n+]1cccc(C)c1.O=S(=O)([O-])C(F)(F)F [1-butyl-3-methylpyridinium trifluoromethanesulfonate] | 474 ± 48
15 | CCCCn1cc[n+](C)c1.O=S(=O)([O-])C(F)(F)F [1-butyl-3-methylimidazolium trifluoromethanesulfonate] | 466 ± 47
16 | CCCC[n+]1cccc(C)c1.O=S(=O)([N-]S(=O)(=O)C(F)(F)F)C(F)(F)F | 582 ± 59
17 | CC[n+]1cccc(C)c1.O=S(=O)([N-]S(=O)(=O)C(F)(F)F)C(F)(F)F | 522 ± 53
18 | CCCCn1cc[n+](C)c1.N#CN=C=[N-] [1-butyl-3-methylimidazolium dicyanamide] | 392 ± 40
19 | CCC[n+]1cccc(C)c1.O=S(=O)([N-]S(=O)(=O)C(F)(F)F)C(F)(F)F | 549 ± 55

Same assay, conditions: 334.15 K; 101.33 kPa; Liquid; Large sample (1 g) DSC

Row | SMILES | molar heat capacity at constant pressure [J/K/mol]
20 | CCCC[n+]1cccc(C)c1.O=S(=O)([O-])C(F)(F)F [1-butyl-3-methylpyridinium trifluoromethanesulfonate] | 475 ± 48
21 | CCCCn1cc[n+](C)c1.O=S(=O)([O-])C(F)(F)F [1-butyl-3-methylimidazolium trifluoromethanesulfonate] | 467 ± 47

Same assay, conditions: 335.15 K; 101.33 kPa; Liquid; Large sample (1 g) DSC

Row | SMILES | molar heat capacity at constant pressure [J/K/mol]
22 | CCCC[n+]1cccc(C)c1.O=S(=O)([O-])C(F)(F)F [1-butyl-3-methylpyridinium trifluoromethanesulfonate] | 476 ± 48
23 | CCCCn1cc[n+](C)c1.O=S(=O)([O-])C(F)(F)F [1-butyl-3-methylimidazolium trifluoromethanesulfonate] | 467 ± 47

Same assay, conditions: 336.15 K; 101.33 kPa; Liquid; Large sample (1 g) DSC

Row | SMILES | molar heat capacity at constant pressure [J/K/mol]
24 | CCCC[n+]1cccc(C)c1.O=S(=O)([O-])C(F)(F)F [1-butyl-3-methylpyridinium trifluoromethanesulfonate] | 478 ± 48
25 | CCCCn1cc[n+](C)c1.O=S(=O)([O-])C(F)(F)F [1-butyl-3-methylimidazolium trifluoromethanesulfonate] | 468 ± 47

Same assay, conditions: 337.15 K; 101.33 kPa; Liquid; Large sample (1 g) DSC

Row | SMILES | molar heat capacity at constant pressure [J/K/mol]
26 | CCCC[n+]1cccc(C)c1.O=S(=O)([O-])C(F)(F)F [1-butyl-3-methylpyridinium trifluoromethanesulfonate] | 479 ± 48
27 | CCCCn1cc[n+](C)c1.O=S(=O)([O-])C(F)(F)F [1-butyl-3-methylimidazolium trifluoromethanesulfonate] | 469 ± 47

Same assay, conditions: 338.15 K; 101.33 kPa; Liquid; Large sample (1 g) DSC

Row | SMILES | molar heat capacity at constant pressure [J/K/mol]
28 | CCCC[n+]1cccc(C)c1.O=S(=O)([O-])C(F)(F)F [1-butyl-3-methylpyridinium trifluoromethanesulfonate] | 480 ± 49
29 | CCCCn1cc[n+](C)c1.O=S(=O)([O-])C(F)(F)F [1-butyl-3-methylimidazolium trifluoromethanesulfonate] | 470 ± 48

Same assay, conditions: 339.15 K; 101.33 kPa; Liquid; Large sample (1 g) DSC

Row | SMILES | molar heat capacity at constant pressure [J/K/mol]
30 | CCCC[n+]1cccc(C)c1.O=S(=O)([O-])C(F)(F)F [1-butyl-3-methylpyridinium trifluoromethanesulfonate] | 481 ± 49
31 | CCCCn1cc[n+](C)c1.O=S(=O)([O-])C(F)(F)F [1-butyl-3-methylimidazolium trifluoromethanesulfonate] | 471 ± 48

Same assay, conditions: 340.15 K; 101.33 kPa; Liquid; Large sample (1 g) DSC

Row | SMILES | molar heat capacity at constant pressure [J/K/mol]
32 | CCCC[n+]1cccc(C)c1.O=S(=O)([O-])C(F)(F)F [1-butyl-3-methylpyridinium trifluoromethanesulfonate] | 482 ± 49
33 | CCCCn1cc[n+](C)c1.O=S(=O)([O-])C(F)(F)F [1-butyl-3-methylimidazolium trifluoromethanesulfonate] | 472 ± 48

Same assay, conditions: 341.15 K; 101.33 kPa; Liquid; Large sample (1 g) DSC

Row | SMILES | molar heat capacity at constant pressure [J/K/mol]
34 | CCCC[n+]1cccc(C)c1.O=S(=O)([O-])C(F)(F)F [1-butyl-3-methylpyridinium trifluoromethanesulfonate] | 483 ± 49
35 | CCCCn1cc[n+](C)c1.O=S(=O)([O-])C(F)(F)F [1-butyl-3-methylimidazolium trifluoromethanesulfonate] | 473 ± 48

Same assay, conditions: 342.15 K; 101.33 kPa; Liquid; Large sample (1 g) DSC

Row | SMILES | molar heat capacity at constant pressure [J/K/mol]
36 | CCCC[n+]1cccc(C)c1.O=S(=O)([O-])C(F)(F)F [1-butyl-3-methylpyridinium trifluoromethanesulfonate] | 485 ± 49
37 | CCCCn1cc[n+](C)c1.O=S(=O)([O-])C(F)(F)F [1-butyl-3-methylimidazolium trifluoromethanesulfonate] | 474 ± 48

Same assay, conditions: 343.15 K; 101.33 kPa; Liquid; Large sample (1 g) DSC

Row | SMILES | molar heat capacity at constant pressure [J/K/mol]
38 | CCCC[n+]1cccc(C)c1.O=S(=O)([O-])C(F)(F)F [1-butyl-3-methylpyridinium trifluoromethanesulfonate] | 486 ± 49
39 | CCCCn1cc[n+](C)c1.O=S(=O)([O-])C(F)(F)F [1-butyl-3-methylimidazolium trifluoromethanesulfonate] | 475 ± 48

Same assay, conditions: 344.15 K; 101.33 kPa; Liquid; Large sample (1 g) DSC

Row | SMILES | molar heat capacity at constant pressure [J/K/mol]
40 | CCCC[n+]1cccc(C)c1.O=S(=O)([O-])C(F)(F)F [1-butyl-3-methylpyridinium trifluoromethanesulfonate] | 487 ± 49
41 | CCCCn1cc[n+](C)c1.O=S(=O)([O-])C(F)(F)F [1-butyl-3-methylimidazolium trifluoromethanesulfonate] | 476 ± 48

Same assay, conditions: 345.15 K; 101.33 kPa; Liquid; Large sample (1 g) DSC

Row | SMILES | molar heat capacity at constant pressure [J/K/mol]
42 | CCCC[n+]1cccc(C)c1.O=S(=O)([O-])C(F)(F)F [1-butyl-3-methylpyridinium trifluoromethanesulfonate] | 488 ± 49
43 | CCCCn1cc[n+](C)c1.O=S(=O)([O-])C(F)(F)F [1-butyl-3-methylimidazolium trifluoromethanesulfonate] | 477 ± 48

Same assay, conditions: 346.15 K; 101.33 kPa; Liquid; Large sample (1 g) DSC

Row | SMILES | molar heat capacity at constant pressure [J/K/mol]
44 | CCCC[n+]1cccc(C)c1.O=S(=O)([O-])C(F)(F)F [1-butyl-3-methylpyridinium trifluoromethanesulfonate] | 489 ± 49
45 | CCCCn1cc[n+](C)c1.O=S(=O)([O-])C(F)(F)F [1-butyl-3-methylimidazolium trifluoromethanesulfonate] | 477 ± 48

Same assay, conditions: 347.15 K; 101.33 kPa; Liquid; Large sample (1 g) DSC

Row | SMILES | molar heat capacity at constant pressure [J/K/mol]
46 | CCCC[n+]1cccc(C)c1.O=S(=O)([O-])C(F)(F)F [1-butyl-3-methylpyridinium trifluoromethanesulfonate] | 490 ± 50
47 | CCCCn1cc[n+](C)c1.O=S(=O)([O-])C(F)(F)F [1-butyl-3-methylimidazolium trifluoromethanesulfonate] | 478 ± 48

Same assay, conditions: 348.15 K; 101.33 kPa; Liquid; Large sample (1 g) DSC

Row | SMILES | molar heat capacity at constant pressure [J/K/mol]
48 | CCCC[n+]1cccc(C)c1.O=S(=O)([O-])C(F)(F)F [1-butyl-3-methylpyridinium trifluoromethanesulfonate] | 491 ± 50
49 | CCCCn1cc[n+](C)c1.O=S(=O)([O-])C(F)(F)F [1-butyl-3-methylimidazolium trifluoromethanesulfonate] | 479 ± 48

Same assay, conditions: 349.15 K; 101.33 kPa; Liquid; Large sample (1 g) DSC

Row | SMILES | molar heat capacity at constant pressure [J/K/mol]
50 | CCCC[n+]1cccc(C)c1.O=S(=O)([O-])C(F)(F)F [1-butyl-3-methylpyridinium trifluoromethanesulfonate] | 492 ± 50
51 | CCCCn1cc[n+](C)c1.O=S(=O)([O-])C(F)(F)F [1-butyl-3-methylimidazolium trifluoromethanesulfonate] | 480 ± 49

Same assay, conditions: 350.15 K; 101.33 kPa; Liquid; Large sample (1 g) DSC

Row | SMILES | molar heat capacity at constant pressure [J/K/mol]
52 | CCCC[n+]1cccc(C)c1.O=S(=O)([O-])C(F)(F)F [1-butyl-3-methylpyridinium trifluoromethanesulfonate] | 493 ± 50
53 | CCCCn1cc[n+](C)c1.O=S(=O)([O-])C(F)(F)F [1-butyl-3-methylimidazolium trifluoromethanesulfonate] | 481 ± 49

Same assay, conditions: 351.15 K; 101.33 kPa; Liquid; Large sample (1 g) DSC

Row | SMILES | molar heat capacity at constant pressure [J/K/mol]
54 | CCCC[n+]1cccc(C)c1.O=S(=O)([O-])C(F)(F)F [1-butyl-3-methylpyridinium trifluoromethanesulfonate] | 494 ± 50
55 | CCCCn1cc[n+](C)c1.O=S(=O)([O-])C(F)(F)F [1-butyl-3-methylimidazolium trifluoromethanesulfonate] | 481 ± 49

Same assay, conditions: 352.15 K; 101.33 kPa; Liquid; Large sample (1 g) DSC

Row | SMILES | molar heat capacity at constant pressure [J/K/mol]
56 | CCCC[n+]1cccc(C)c1.O=S(=O)([O-])C(F)(F)F [1-butyl-3-methylpyridinium trifluoromethanesulfonate] | 495 ± 50
57 | CCCCn1cc[n+](C)c1.O=S(=O)([O-])C(F)(F)F [1-butyl-3-methylimidazolium trifluoromethanesulfonate] | 482 ± 49

Same assay, conditions: 353.15 K; 101.33 kPa; Liquid; Large sample (1 g) DSC

Row | SMILES | molar heat capacity at constant pressure [J/K/mol]
58 | CCCC[n+]1cccc(C)c1.O=S(=O)([O-])C(F)(F)F [1-butyl-3-methylpyridinium trifluoromethanesulfonate] | 496 ± 50
59 | CCCCn1cc[n+](C)c1.O=S(=O)([O-])C(F)(F)F [1-butyl-3-methylimidazolium trifluoromethanesulfonate] | 483 ± 49
